Paper PMC8968952, “Modulation of ERCC1-XPF Heterodimerization Inhibition via Structural Modification of Small Molecule Inhibitor Side-Chains” (Frontiers in Oncology, 2022)
Values joined by “and” are separate entries in the source; they are usually repeats but may differ in a detail not shown here. Equal values may be shown once.

Key:
HCT-116 cells [1] = assay: Cellular repair of cyclobutane pyrimidine dimers (cellular NER) after UVC; assay type: cell-based, human; settings: 2 μM
Protocol: We followed the protocol of Mirzayans et al. ([79]) with minor modifications as previously described ([70]). Inhibitor compounds were dissolved in DMSO and applied to a final DMSO concentration of 0.2% in media and 0.2% DMSO was used as the vehicle control. Mouse anti-thymine dimer monoclonal antibody (cat. no. MC-062, Kamiya Biomedical Company, Seattle, WA) was used for the immunofluorescence following UVC irradiation of the cells and fluorescent microscopic evaluation and measurement of fluorescence intensity were performed using MetaXpress, version 6.2.1.704, software (Molecular Devices, Sunnyvale, California). Data were plotted using GraphPad Prism version 5.04 software.
Immunofluorescent detection of cyclobutane pyrimidine dimers (CPD) generated in the DNA of HCT-116 cells after exposure to UVC radiation was used to measure NER. Our observations that approximately 80% of CPD were removed 24 hours post irradiation in the absence of any inhibitors mirrors previous observations ([70], [79]).

[2] = Metabolic stability in human liver microsomes; assay type: in vitro ADME
Protocol: (§1) The ADME (absorption, distribution, metabolism, and excretion) profile of our lead compound 6 was determined by standard protocols carried out by WuXi AppTec (Shanghai) Co (https://www.wuxiapptec.com/). The following tests were conducted: distribution coefficient (log D at pH 7.4), aqueous solubility (Kinetic), metabolic stability in human liver microsomes and cryopreserved human hepatocytes, bidirectional permeability in Caco-2 cells, serum protein binding, and cytochrome P450 (CYP) inhibition (CYP1A2, CYP2C9, CYP2C19, CYP2D6, and CYP3A4-M).

HCT-116 cells [3] = assay: Clonogenic survival assay, cyclophosphamide treatment; assay type: cell-based, human
Protocol: […] The medium was then replaced with drug and inhibitor-free fresh medium. After incubation for another 9 days to allow for colony formation, the plates were stained with crystal violet, colonies were counted, and plating efficiency and surviving fraction were calculated. Data were plotted using GraphPad Prism version 5.04. software.

[4] = Bidirectional permeability in Caco-2 cells; assay type: in vitro ADME; settings: human
Protocol: as §1

[5] = target: T1, ERCC1-XPF heterodimer in A549 cells (Homo sapiens, UniProt Q92889); assay: Proximity ligation assay of ERCC1-XPF heterodimerization; assay type: cell-based; settings: 2 µM, 24 h
T1 construct: endogenous in cells; host or cells: A549
T1 sequence (Q92889 1-916): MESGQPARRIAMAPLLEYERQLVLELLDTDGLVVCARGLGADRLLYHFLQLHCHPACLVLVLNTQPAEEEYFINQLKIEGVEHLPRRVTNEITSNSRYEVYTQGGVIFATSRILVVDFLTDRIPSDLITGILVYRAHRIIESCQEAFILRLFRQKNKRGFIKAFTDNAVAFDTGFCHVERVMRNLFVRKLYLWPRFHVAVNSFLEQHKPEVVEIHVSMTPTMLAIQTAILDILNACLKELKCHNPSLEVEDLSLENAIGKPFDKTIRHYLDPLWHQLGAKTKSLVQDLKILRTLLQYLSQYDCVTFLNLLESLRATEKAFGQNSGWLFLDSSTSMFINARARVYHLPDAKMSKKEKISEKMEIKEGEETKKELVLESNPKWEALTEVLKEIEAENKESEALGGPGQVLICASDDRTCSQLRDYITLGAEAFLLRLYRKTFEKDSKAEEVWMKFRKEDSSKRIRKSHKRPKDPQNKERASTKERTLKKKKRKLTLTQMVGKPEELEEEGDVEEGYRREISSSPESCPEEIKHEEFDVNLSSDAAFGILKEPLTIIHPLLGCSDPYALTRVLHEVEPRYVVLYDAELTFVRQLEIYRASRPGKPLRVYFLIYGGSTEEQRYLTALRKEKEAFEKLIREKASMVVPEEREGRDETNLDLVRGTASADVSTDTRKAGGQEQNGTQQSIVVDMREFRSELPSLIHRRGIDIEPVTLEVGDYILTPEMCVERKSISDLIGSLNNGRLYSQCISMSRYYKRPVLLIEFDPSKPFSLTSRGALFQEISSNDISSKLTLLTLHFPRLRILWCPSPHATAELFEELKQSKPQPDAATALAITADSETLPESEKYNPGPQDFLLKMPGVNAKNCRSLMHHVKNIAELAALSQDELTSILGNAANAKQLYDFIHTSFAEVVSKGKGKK
Protocol: A previously published protocol ([73]) was followed with minor modifications. Briefly, 3 x 10^4 A549 cells were seeded in each well of an 8-well Chamber Slide system (Ibidi. Fitchburg, WI) and allowed to adhere overnight. The cells were then treated with the inhibitor (2 μM prepared from a 1 mM stock in DMSO) or vehicle control (0.2% DMSO) and incubated for 24 h. Samples were fixed and processed for protein proximity ligation analysis (PLA) by the Duolink PLA assay kit (Sigma-Aldrich, Oakville, ON) using an ERCC1 antibody (A73368-100, 1/100; EpiGentek, Farmingdale, NY) and an XPF antibody (LS-C173159, 1/100; LifeSpan BioSciences, Seattle, WA). […] Images of the interaction of ERCC1 and XPF represented as red dots were analyzed using IMARIS 9.7 software (Oxford Instruments). Results are expressed as mean values from at least three experiments conducted independently in duplicate.
To confirm that compound 6 was able to disrupt the interaction between subunits in the ERCC1-XPF heterodimer in cells, we performed PLA using A549 lung cancer cells exposed to 2 µM compound 6 or DMSO vehicle for 24 h. […] In the presence of vehicle (0.2% DMSO) alone we observed an average of 75.7 ± 15.4 foci per cell whereas in the presence of compound 6 only an average of 3.1 ± 2.6 foci per cell were detected. […]

- metabolic stability grade, liver microsome assay (in words) [2]: low to moderate metabolic stability
- CLint scaled ([2]; human, liver microsomes, read-out: Metabolic stability in human liver microsomes (clearance)): 376 mL/min/kg
- efflux ratio [4]: 27.5
SMILES: COc1ccc2nc3cc(Cl)ccc3c(Nc3ccc(O)c(CN4CCN(CCN(C(C)C)C(C)C)CC4)c3)c2c1 [Compound 6]
- effect on CPD removal / cellular NER (in words) (HCT-116 cells [1]): significant inhibition of NER
- sensitization to cyclophosphamide (in words) (HCT-116 cells [3]; 0.5 μM 6, 10 at 1.0 μM or 0.5 μM): sensitized the cells to cyclophosphamide
- cell survival with cyclophosphamide (HCT-116 cells [3]; 0.5 μM compound, 50 μM cyclophosphamide): 62%
- cell survival at 250 μM cyclophosphamide (in words) (HCT-116 cells [3]; 0.5 μM compound, 250 μM cyclophosphamide): almost no cells surviving
- ERCC1-XPF PLA foci per cell [5]: 3.1 ± 2.6 foci per cell and 3 foci per cell
